Consider 1 compound from US20240108623A1, “METHODS OF TREATING CANCER WITH POZIOTINIB” (BOARD OF REGENTS, THE UNIVERSITY OF TEXAS SYSTEM, priority 2021, published 2024).

The test system of assay [1] is lung adenocarcinomas harboring EGFR L858R mutations, acquired L718V mutation. Kind of assay: Case study of patient treated with second-generation TKI. The format is in vivo, human. As to conditions: acquired L718V after first-line osimertinib. The text has this: Case studies of patients treated with second-generation TKIs. Patients were consented under the GEMINI protocol (PA13-0589) which was approved in accordance with the MD Anderson Institutional Review Board.

In assay [2] the test system is PDXs with G719A mutations. The assay is described as follows: PDX tumor growth. It is filed as in vivo, mice. As to conditions: 2.5 mg/kg poziotinib; 5 mg/kg and 20 mg/kg osimertinib; five days per week, day 28.
Assay [3] relates to exon 20 loop insertion mutations. The assay is described as follows: Ba/F3 drug screening, mutant/WT IC50 by class of EGFR TKI. It is filed as cell-based. Conditions: Ba/F3 cells expressing exon 20 loop insertion mutations. As to the method: (§1) Ba/F3 cell generation, drug screening, and IC50 approximations. Ba/F3 cells were obtained as a gift from Dr. Gordon Mills (MD Anderson Cancer Center), and maintained in RPMI (Sigma) containing 10% FBS, 1% penicillin/streptomycin, and 10 ng/ml recombinant mIL-3 (R&D Biosystems). To establish stable Ba/F3 cell lines, Ba/F3 cells were transduced with retroviruses containing mutant EGFR plasmids for 12-24 hours. Retroviruses were generated using Lipofectamine 2000 (Invitrogen) transfections of Phoenix 293T-ampho cells (Orbigen) with pBabe-Puro based vectors listed below in Table 6. Vectors were generated by GeneScript or Bioinnovatise using parental vectors from Addgene listed below in Table 6.
After 48-72 hours of transduction, 2 μg/ml puromycin (Invitrogen) was added to Ba/F3 cell lines in complete RPMI. To select for EGFR positive cell lines, cells were stained with PE-EGFR (Biolegend) and sorted by FACS. […] Plates were incubated for a minimum of 10 minutes, and bioluminescence was determined using a FLUOstar OPTIMA plate reader (BMG LABTECH). […] Statistical differences between groups were determined by ANOVA as described in the figure legends.
Heatmap generation and spearman correlations of groups. […] Hierarchical clustering was determined by Euclidean distance between Mut/WT ratios. […]

The next assay concerns the target T1, EGFR S720P (Homo sapiens, UniProt P00533, S720P).
T1 construct: expressed in transfected cells; host or cells: Ba/F3 (retroviral, pBabe-Puro based vector; created by GeneScript from EGFR WT)
The assay is described as follows: Ba/F3 cell drug screening, Cell Titer Glo. It is filed as cell-based. As to conditions: Ba/F3 cells expressing EGFR S720P; 72 hours. As to the method: as §1
(§2) After 48-72 hours of transduction, 2 μg/ml puromycin (Invitrogen) was added to Ba/F3 cell lines in complete RPMI. To select for EGFR positive cell lines, cells were stained with PE-EGFR (Biolegend) and sorted by FACS. After sorting, EGFR positive cells were maintained in RPMI containing 10% FBS, 1% penicillin/streptomycin, and 1 ng/ml EGF to support cell viability. Drug screening was performed as previously described^41,42. Shortly, cells were plated in 384-well plates (Greiner Bio-One) at 2000-3000 cells per well in technical triplicate. Seven different concentrations of TKIs or DMSO vehicle were added to reach a final volume of 40 μL per well. After 72 hours, 11p L of Cell Titer Glo (Promega) was added to each well. Plates were incubated for a minimum of 10 minutes, and bioluminescence was determined using a FLUOstar OPTIMA plate reader (BMG LABTECH). Raw bioluminescence values were normalized to DMSO control treated cells, and values were plotted in GraphPad Prism. Non-linear regressions were used to fit the normalized data with a variable slope, and IC50 values were determined by GraphPad prism by interpolation of concentrations at 50% inhibition. Drug screens were performed in technical triplicate on each plate and either duplicate or triplicate biological replicates. Mutant to WT ratios (Mut/WT) for each drug were calculated by dividing the IC50 values of mutant cell lines by the average IC50 value of Ba/F3 cells expressing WT EGFR supplemented with 10 ng/ml EGF for each drug. Statistical differences between groups were determined by ANOVA as described in the figure legends.

In a further assay the target is T2, EGFR S768I/T790M (Homo sapiens, UniProt P00533, S768I/T790M).
T2 construct: expressed in transfected cells; host or cells: Ba/F3 (retroviral transduction, pBabe-Puro based vectors)
Kind of assay: Ba/F3 cell drug screening, Cell Titer Glo. As to conditions: Ba/F3 cells expressing EGFR S768I/T790M; 72 hours. It is filed as cell-based. On the procedure: as §1, §2

The next assay addresses T3, EGFR L718Q T790M (Homo sapiens, UniProt P00533, L718Q/T790M).
T3 construct: expressed in transfected cells; host or cells: Ba/F3 (retroviral transduction, pBabe-Puro based vectors)
The assay is described as follows: Ba/F3 cell drug screening, Cell Titer Glo. It is filed as cell-based. Conditions: Ba/F3 cells expressing EGFR L718Q T790M; 72 hours. As to the method:
as §1, §2

The next assay concerns the target T4, EGFR L858R T790M L718V (Homo sapiens, UniProt P00533, L718V/L858R/T790M).
T4 construct: expressed in transfected cells; host or cells: Ba/F3 (retroviral transduction, pBabe-Puro based vectors)
Kind of assay: Ba/F3 cell drug screening, Cell Titer Glo. Conditions: Ba/F3 cells expressing EGFR L858R T790M L718V; 72 hours. The format is cell-based. On the procedure: as §1, §2

Another assay deals with T5, EGFR N771dupN (Homo sapiens, UniProt P00533, DUP771-771).
T5 construct: expressed in transfected cells; host or cells: Ba/F3 (retroviral, pBabe-Puro based vector)
The assay is described as follows: Ba/F3 cell drug screening, Cell Titer Glo. It is filed as cell-based. Conditions: Ba/F3 cells expressing EGFR N771dupN; 72 hours. On the procedure: as §1, §2

The target of the next assay is T6, EGFR L858R S784F (Homo sapiens, UniProt P00533, L858R/S784F).
T6 construct: expressed in transfected cells; host or cells: Ba/F3 (retroviral, pBabe-Puro based vector; created by GeneScript from EGFR L858R)
The assay is described as follows: Ba/F3 cell drug screening, Cell Titer Glo. As to conditions: Ba/F3 cells expressing EGFR L858R S784F; 72 hours. It is filed as cell-based. On the procedure:
as §1, §2

In another assay the target is T7, EGFR Ex19del T790M C797S (Homo sapiens, UniProt P00533, C797S/DEL746-750/T790M).
T7 construct: expressed in transfected cells; host or cells: Ba/F3 (retroviral transduction, pBabe-Puro based vectors)
Kind of assay: Ba/F3 cell drug screening, Cell Titer Glo. Conditions: Ba/F3 cells expressing EGFR Ex19del T790M C797S; 72 hours. It is filed as cell-based. On the procedure:
as §1, §2

Another assay deals with T8, EGFR S768I/V769L (Homo sapiens, UniProt P00533, S768I/V769L).
T8 construct: host or cells: Ba/F3 (retroviral transduction, pBabe-Puro based vectors)
The assay is described as follows: Ba/F3 cell drug screening, Cell Titer Glo. The format is cell-based. As to conditions: Ba/F3 cells expressing EGFR S768I/V769L; 72 hours. On the procedure:
as §1, §2

A further assay concerns the target T9, EGFR A763insFQEA (Homo sapiens, UniProt P00533, INS763FQEA).
T9 construct: expressed in transfected cells; host or cells: Ba/F3 (retroviral, pBabe-Puro based vector)
Kind of assay: Ba/F3 cell drug screening, Cell Titer Glo. As to conditions: Ba/F3 cells expressing EGFR A763insFQEA; 72 hours. It is filed as cell-based. On the procedure:
as §1, §2

Assay [4] has as its system PDXs harboring EGFR S768dupSVD exon 20 loop insertion mutation. Kind of assay: PDX tumor growth. It is filed as in vivo, mice. As to conditions: drug 5 days per week, day 21.

SMILES strings stand for the structures.

Take `C=CC(=O)N1CCC(Oc2cc3c(Nc4ccc(Cl)c(Cl)c4F)ncnc3cc2OC)CC1` [Poziotinib]: the “clinical outcome of patient” value in assay [1] was “clinical benefit of stable disease and tumor shrinkage”. Moreover, the “sensitivity of mice harboring PDXs with G719A mutations” value in [2] was “most sensitive”. The “sensitivity of Ex20ins mutations in vitro” value in [3] is “sensitive”. The results for the “Response of Cells Comprising Classical-Like EGFR Mutations to Second-Generation TKIs” value on EGFR S720P, on EGFR L858R S784F and at EGFR A763insFQEA were 0.1814, 0.1185 and 0.06955, respectively. Also, on EGFR S768I/T790M, the “Response of Cells Comprising T790M-like-S EGFR Mutations to Second-Generation TKIs” value is 2.935. For the same compound, the “Response of Cells Comprising T790M-like-R EGFR Mutations to Second-Generation TKIs” value at EGFR L718Q T790M is given as 6.487; on EGFR L858R T790M L718V, 33.63; on EGFR Ex19del T790M C797S, 1862. The “Response of Cells Comprising Ex20ins EGFR Mutations to Poziotinib” value at EGFR N771dupN was determined as 0.04003. Also, the “Response of Cells Comprising PACC EGFR Mutations to Second-Generation TKIs” value at EGFR S768I/V769L worked out at 0.04206. In addition, the “sensitivity of Ex20ins mutations in vivo” value in assay [4] is “sensitive”.
